# pIC50: −log10 of the molar value. Where two headings read alike, the source gives them in different places.
# Legend:
# [1] = test system: P. falciparum stage V female gametocytes; experiment: P. falciparum female gametocyte activation assay (Pf FGAA), 24 h or 48 h preincubation, Pfs25 expression readout; type: cell-based, Plasmodium falciparum NF54; details: mean, read-out: Gametocytes mean Pf FGAA IC50
# Procedure, shortened: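 Female activation, triggered by xanthurenic acid and cooling, was scored by imaging Cy3-labelled anti-Pfs25 female gametes after 24 h at 26 °C. Beforehand, purified NF54 stage V gametocytes had been incubated with compound for either 24 h or 48 h (37 °C, 3% O2). Values are pIC50 from full-curve regression.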
# [2] = test system: P. falciparum asexual blood stages; details: read-out: Pf Asexual blood stages XC50, cited from earlier work
# [3] = test system: HepG2 cells; experiment: HepG2 cytotoxicity assay; type: cell-based
# Procedure, shortened: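 Once incubation ended, the HepG2 plates were warmed to room temperature for 30 min alongside the CellTiter-Glo reagent. Luminescent signal was developed by reagent addition and stabilized for 10 min before plate reading.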
# [4] = test system: P. falciparum stages IV–V gametocytes; experiment: Gametocytocidal ATP-depletion assay (gametocyte ATP bioluminescence); type: cell-based, Plasmodium falciparum
# Procedure, shortened: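 Read-out is luciferase luminescence of parasite ATP (BacTiter-Glo), standing in for viability. Double-purified mature stage IV–V gametocytes, 12,500 per well, were exposed 48 h at 37 °C in low-O2 gas; screening concentration 2 μM.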
# [5] = P. falciparum female gametocyte activation assay
# [6] = TCAMS asexual blood stage data, ref 1 (Gamo, F. J. et al., Nature 465, 305-310, 2010)
# [7] = P. falciparum female gametocytes
# [8] = TCAMS data, ref 1 (Gamo et al., 2010)
Compound,"pIC50 [2, 6]",Gametocytes mean ATP inhibition at 2µM [4],"pIC50 [1, 7]",HepG2 cells mean TOX50 ([3]; HepG2 cells; mean),pIC50 [1],"pIC50 [2, 8]",HepG2 cells mean TOX50 ([3]; mean),Gametocytes mean ATP inhibition at 2µM (%) [4],other results
Cl.O=S(=O)(Nc1cc2c(cc1OCCCN1CCCCC1)CCNCC2)c1ccc(-c2ccc(Cl)cc2)cc1 [TCMDC-141753],6.00,-0.045%,,,,,,,"pIC50 [1, 5]: 5.70; HepG2 cells mean TOX50 ([3]; mean; HepG2 cells): 4.37 µM"
FC(F)(F)c1ccc2[nH]c(-c3cccc(-c4ccc(CNCCN5CCNCC5)cc4)c3)nc2c1.O=C(O)C(F)(F)F [TCMDC-132872],6.07,-15.41%,5.75,8.81 µM,,,,,
COc1cc2ccccc2c(CNCCCCCCNCc2c(OC)c(OC)cc3ccccc23)c1OC.CS(=O)(=O)O [TCMDC-137795],,,,,6.17,5.95,4.62 µM,13.93%,
COc1ccc(CCNCCCCNCCc2ccc(OC)c3ccccc23)c2ccccc12.CS(=O)(=O)O [TCMDC-137961],,,,,6.32,6.35,2.14 µM,90.63%,
Cl.N[C@@H](CCNC1CCN(c2cccc(C(F)(F)F)c2)CC1)Cc1ccc(F)c(F)c1 [TCMDC-132301],5.89,70.53%,6.36,3.76 µM,,,,,
Nc1nc(N)c2c(ccc3c2ccn3Cc2cccc(F)c2)n1 [TCMDC-137810],,,,,5.85,8.52,0.06 µM,0.71%,
COc1cc2nc(N3CCN(C(=O)c4c(Cl)nsc4-c4ccccc4Cl)CC3)nc(N)c2cc1OC.O=C(O)C(F)(F)F [TCMDC-138186],,,,,6.00,6.28,5.89 µM,69.90%,
CC(C)c1ccc(CN2CCC(CNC(=O)c3cc(-c4cccc(Cl)c4)cs3)C2)cc1.O=C(O)C(F)(F)F (stereo not drawn) [TCMDC-134438],6.12,-9.36%,6.22,6.53 µM,,,,,
Cc1ccc(Cn2nc(Cl)c(N3CCCNCC3)cc2=O)cc1NC(=O)Nc1ccc(-c2ccccc2)cc1.O=C(O)C(F)(F)F [TCMDC-141697],6.17,-13.94%,,,,,,,"pIC50 [1, 5]: 6.00; HepG2 cells mean TOX50 ([3]; mean; HepG2 cells): 7.25 µM"
CCOc1ccccc1CCNC(C)Cc1ccc(C(=O)Nc2ccc(CC(C)NCCc3cccc(Cl)c3)cc2)cc1 (stereo not drawn) [TCMDC-139805],,,,,5.86,6.27,3.24 µM,17.68%,
COc1ccc(C[C@H](N)C(=O)N[C@H]2[C@@H](O)[C@H](n3cnc4c(N(C)C)ncnc43)O[C@@H]2CO)cc1 [TCMDC-123493],6.77,,,1.80 µM,,,,,"pIC50 ([1]; Plasmodium falciparum, P. falciparum female gametocytes): 6.54; Selectivity ratio ([3]; HepG2 TOX50 versus Pf FGAA IC50): 6.24; inhibition at 2 µM ([4]; Plasmodium falciparum, mean): 63.8%"
O=C(NCC1CCN(CCN2CCC(c3cn(CCO)c4ccccc34)CC2)CC1)c1ccc(-c2ccc(C(F)(F)F)cc2)cc1 [TCMDC-138856],,,,,5.83,6.36,2.69 µM,5.55%,
CC(Nc1cc(-c2ccccn2)nc(-c2ccccn2)n1)c1ccccc1 (stereo not drawn) [TCMDC-125420],6.35,86.62%,6.68,6.18 µM,,,,,
COc1cc2nc(NCc3cccc(CNC(=O)c4ccc(-c5ccc(C(C)=O)cc5)cc4)c3)nc(N)c2cc1OC.O=C(O)C(F)(F)F [TCMDC-138177],,,,,5.33,6.92,6.82 µM,-19.05%,
CS(=O)(=O)O.CSc1ccc2ccccc2c1CCNCCCCNCCc1c(SC)ccc2ccccc12 [TCMDC-137763],,,,,6.00,6.39,1.82 µM,93.38%,
COc1ccc2c(c1)CC(C)(C)NC2CCCCCCCCC1NC(C)(C)Cc2cc(OC)ccc21.O=C(O)C(=O)O (stereo not drawn) [TCMDC-137935],,,,,5.83,5.89,5.62 µM,1.39%,
CN1CCCC1CCNCc1cccc(-c2cnc(N3CCCC(C)(C)C3)nc2)c1 (stereo not drawn) [TCMDC-133144],6.03,3.15%,5.78,4.63 µM,,,,,
SC(=Nc1ccc(Cl)c(Cl)c1)NN=Cc1ccccn1 [TCMDC-125522],6.11,64.79%,7.10,3.47 µM,,,,,
Cc1[nH]c(C)c(-c2ccc(CCc3ccc(F)cc3F)cc2)c(=O)c1Cl [TCMDC-135462],7.80,51.34%,4.88,>100 µM,,,,,
CCc1ccccc1-c1csc(C(=O)NCC2CCN(Cc3ccc(C(C)(C)C)cc3)C2)c1.O=C(O)C(F)(F)F (stereo not drawn) [TCMDC-134448],5.94,-14.62%,5.92,7.67 µM,,,,,
Nc1nc(N)c2c(ccc3c2ccn3Cc2ccc(-c3ccccc3)cc2)n1 [TCMDC-137813],,,,,5.70,7.30,1.16 µM,26.93%,
CC(C)(C)c1ccc(CN2CCC(CNC(=O)c3cc(-c4cccc(C(F)(F)F)c4)cs3)C2)cc1.O=C(O)C(F)(F)F (stereo not drawn) [TCMDC-134442],5.99,-16.04%,6.02,6.39 µM,,,,,
CC(C)(C)c1ccc(CNC(=O)c2cc(CNC3CCNCC3)ccc2O)cc1 [TCMDC-140775],,,,,5.70,6.15,13.96 µM,-11.19%,
COc1c(CCNCCCCNCCc2cc(Cl)c3ccccc3c2OC)cc(Cl)c2ccccc12.CS(=O)(=O)O [TCMDC-137869],,,,,6.48,6.77,1.78 µM,96.85%,
Cc1occc1C(=O)Nc1nc(-c2ccccn2)nc2ccsc12 [TCMDC-135244],6.05,87.21%,7.22,>100 µM,,,,,
Cc1cc(N)c2cc(NC(=O)/C=C/c3ccc([N+](=O)[O-])cc3)ccc2n1 [TCMDC-139335],,,,,5.57,6.17,5.37 µM,-7.69%,
c1ccc(-c2nc(NC3CCCCC3)cc(C3CC3)n2)nc1 [TCMDC-125825],6.14,85.03%,6.80,48.99 µM,,,,,
N=C(/N=C(/NCCCCCCN/C(=N\C(=N)Nc1ccc(Cl)cc1)N1CCCCC1)N1CCCCC1)Nc1ccc(Cl)cc1 [TCMDC-131811],6.59,49.82%,5.10,44.23 µM,,,,,
COc1cc(NCCCNCc2cn(Cc3cc(Br)cc(Br)c3)c3ccccc23)nc2ccccc12 [TCMDC-140677],,,,,6.07,6.72,3.94 µM,11.13%,
